Measurements published in patent US8952024B2, “Herbicidal pyrimidone derivatives” (E I du Pont de Nemours and Company, priority 2009, dated 2015).

Tests used:
Type in all cases: in vivo
[1] = test system: pigweed (Amaranthus retroflexus); assay: Test A pre-/postemergence plant response
Summary of the method: (§1)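 Plants grown from seed in a loam soil and sand mix received test compounds both as a preemergence soil spray and, at the same time, as a postemergence spray at the one- to two-leaf stage. Injury was judged visually against untreated controls roughly ten days later, 0 meaning no effect and 100 complete control.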

[2] = test system: barnyardgrass (Echinochloa crus-galli); assay: Test A pre-/postemergence plant response
Summary of the method: as §1

[3] = test system: yellow nutsedge (Cyperus esculentus); assay: Test B pre-/postemergence plant response; conditions: Postemergence
Summary of the method: (§2)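 Greenhouse herbicide screen. Pre- and postemergence (1- to 4-leaf) spray of compound in solvent/surfactant mixture; loam–sand soil for pre, peat/vermiculite medium for post. Visual control rating 0–100 at 13 to 15 days after treatment.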

[4] = test system: Italian ryegrass (Lolium multiflorum); assay: Test B pre-/postemergence plant response; conditions: Postemergence
Summary of the method: as §2

[5] = test system: large crabgrass (Digitaria sanguinalis); assay: Test B pre-/postemergence plant response; conditions: Postemergence
Summary of the method: as §2

[6] = test system: woolly cupgrass (Eriochloa villosa); assay: Test B pre-/postemergence plant response; conditions: Postemergence
Summary of the method: as §2

[7] = test system: blackgrass (Alopecurus myosuroides); assay: Test B pre-/postemergence plant response; conditions: for Plant response rating, Blackgrass: Postemergence
Summary of the method: as §2

[8] = test system: downy bromegrass (Bromus tectorum); assay: Test B pre-/postemergence plant response; conditions: for Plant response rating, Bromegrass, Downy: Postemergence
Summary of the method: as §2

[9] = test system: velvetleaf (Abutilon theophrasti); assay: Test B pre-/postemergence plant response; conditions: Postemergence
Summary of the method: as §2

[10] = test system: morningglory (Ipomoea coccinea); assay: Test B pre-/postemergence plant response; conditions: Postemergence
Summary of the method: as §2

[11] = test system: Surinam grass (Brachiaria decumbens); assay: Test B pre-/postemergence plant response; conditions: Postemergence
Summary of the method: as §2

[12] = test system: wheat (Triticum aestivum); assay: Test B pre-/postemergence plant response; conditions: Postemergence
Summary of the method: as §2

[13] = test system: goosegrass (Eleusine indica); assay: Test B pre-/postemergence plant response; conditions: Postemergence
Summary of the method: as §2

[14] = Postemergence, 125 g ai/ha, 0 to 100 scale where 0 is no effect and 100 is complete control
[15] = Postemergence, 500 g ai/ha, visual injury, 0 to 100 scale (0 no effect, 100 complete control), approx. ten days
[16] = Preemergence, 125 g ai/ha, 0 to 100 scale, 0 = no effect, 100 = complete control
[17] = Preemergence, 500 g ai/ha, 0 to 100 scale, 0 = no effect, 100 = complete control
[18] = 31 g ai/ha, 0 to 100 scale (0 no effect, 100 complete control)
[19] = 125 g ai/ha, scale 0 to 100 (0 no effect, 100 complete control)
[20] = 250 g ai/ha, scale 0 to 100 (0 no effect, 100 complete control), 13 to 15 days
[21] = 62 g ai/ha, postemergence, 0 is no effect, 100 is complete control, 13 to 15 days

## Cc1ccc(-n2c(-c3cc(F)cc(F)c3)ncc(C(=O)C3=C(O)CCCC3=O)c2=O)cc1 [Compound 162]
[1]; [14]
  Plant response rating, Pigweed: 100
[1]; [15]
  Pigweed plant response rating: 100
[1]; [16]
  Plant response rating, Pigweed: 100
[1]; [17]
  Plant response rating, Pigweed: 100
[2]; [14]
  Plant response rating, Barnyardgrass: 100
[2]; [15]
  Barnyardgrass plant response rating: 100
[2]; [16]
  Plant response rating, Barnyardgrass: 10
[2]; [17]
  Plant response rating, Barnyardgrass: 100
[3]; [18]
  Plant response rating, Nutsedge, Yellow: 25
[3]; [19]
  Plant response rating, Nutsedge, Yellow: 75
[3]; [20]
  Plant response rating, Nutsedge, Yellow: 80
[4]; [18]
  Plant response rating, Ryegrass, Italian: 40
[4]; [19]
  Plant response rating, Ryegrass, Italian: 80
[4]; [20]
  Plant response rating, Ryegrass, Italian: 90
[5]; [18]
  Plant response rating, Crabgrass, Large: 80
[5]; [19]
  Plant response rating, Crabgrass, Large: 98
[5]; [20]
  Plant response rating, Crabgrass, Large: 98
[6]; [18]
  Plant response rating, Cupgrass, Woolly: 90
[6]; [19]
  Plant response rating, Cupgrass, Woolly: 100
[6]; [20]
  Plant response rating, Cupgrass, Woolly: 100
[7]; [21]
  Blackgrass plant response rating (0 to 100 scale): 40
[7]; [18]
  Plant response rating, Blackgrass: 30
[7]; [19]
  Plant response rating, Blackgrass: 55
[7]; [20]
  Plant response rating, Blackgrass: 65
[8]; [21]
  Bromegrass, Downy plant response rating (0 to 100 scale): 30
[8]; [18]
  Plant response rating, Bromegrass, Downy: 20
[8]; [19]
  Plant response rating, Bromegrass, Downy: 45
[8]; [20]
  Plant response rating, Bromegrass, Downy: 50
[9]; [18]
  Plant response rating, Velvetleaf: 80
[9]; [19]
  Plant response rating, Velvetleaf: 95
[9]; [20]
  Plant response rating, Velvetleaf: 100
[10]; [18]
  Plant response rating, Morningglory: 75
[10]; [19]
  Plant response rating, Morningglory: 90
[10]; [20]
  Plant response rating, Morningglory: 100
[11]; [18]
  Plant response rating, Surinam Grass: 65
[11]; [19]
  Plant response rating, Surinam Grass: 75
[11]; [20]
  Plant response rating, Surinam Grass: 85
[12]; [18]
  Plant response rating, Wheat: 10
[12]; [19]
  Plant response rating, Wheat: 35
[12]; [20]
  Plant response rating, Wheat: 40
[13]; [18]
  Plant response rating, Goosegrass: 60
[13]; [19]
  Plant response rating, Goosegrass: 90
[13]; [20]
  Plant response rating, Goosegrass: 98
